Entries after “also recorded” stand apart in the source; their conditions may differ. Read-outs that look alike come from different tables or passages of the source.
Key:
[1] = system: patients with transient cerebral ischemic attack (TIA) / cerebral infarction; settings: for recurrence of TIA / onset or recurrence of cerebral infarction during administration: administration continued for 337 days, single patients, hydrochloride
Description: The present invention will be explained according to the following examples in more detail. However, the scope of the invention is not limited to these examples.
A person. They occurred transient cerebral ischemic attack (TIA). From three days after the onset, treatment with 160 mg/day of Cataclot (Ono Pharmaceutical Co., Ltd.) was started and it was continued for 2 weeks.
A person. They occurred TIA.
A person. They occurred TIA. From three days after the onset, treatment with 81 mg/day of Kids Bufferin (Lion Corporation) was started and this treatment was continued for about one month.
(§1) A person. They occurred cerebral infarction.
A person. They occurred cerebral infarction and, ten months after the occurrence of TIA.
as §1
A person. They occurred cerebral infarction. […] From that day of the onset of TIA, they were hospitalized for one week and subjected to intravenous drip containing 1 g of Nicholin H (Takeda Chemical Industries, Ltd.) and administration of 300 mg/day of Panaldine (Daiichi Pharmaceutical Co., Ltd.).
A person. They occurred cerebral infarction. […] They occurred TIA two years after the onset of cerebral infarction. From that day of the onset of TIA, administration of 200 mg/day of Panaldine (Daiichi Pharmaceutical Co., Ltd.) and, in addition, 162 mg/day of Kids Bufferin (Lion Corporation) was started.
A person. They occurred cerebral infarction. […] Immediately after the recurrence, they were treated with fluid for supplementation, urokinase and 300 mg/day of Panaldine (Daiichi Pharmaceutical Co., Ltd.).

[2] = system: stroke, myocardial infarction and vascular death; settings: 142 trials; cited from earlier work

Row | SMILES | recurrence of TIA / onset or recurrence of cerebral infarction during administration ([1]; 75 mg/day) | recurrence of TIA / onset or recurrence of cerebral infarction during administration ([1]; 150 mg/day) | recurrence of TIA and cerebral infarction during administration ([1]; 150 mg/day, administration continued for 496 days, single patient) | recurrence of TIA / onset or recurrence of cerebral infarction during administration ([1]; 300 mg/day) | reduction ratio of odds concerning stroke, myocardial infarction and vascular death against the control group [2] [%]
1 | COc1cccc(CCc2ccccc2OCC(CN(C)C)OC(=O)CCC(=O)O)c1.Cl (racemic) [sarpogrelate hydrochloride, (±)-1-[O-[2-(m-methoxyphenyl)ethyl]phenoxy]-3-(dimethylamino)-2-propyl hydrogensuccinate hydrochloride] | neither recurrence of TIA nor onset of cerebral infarction was observed; also recorded: recurrence of TIA and cerebral infarction was not observed | neither recurrence of TIA nor onset of cerebral infarction was observed; also recorded: recurrence of TIA and cerebral infarction was not observed | recurrence of TIA and cerebral infarction was not observed | neither recurrence of TIA nor onset of cerebral infarction was observed; also recorded: recurrence of TIA and cerebral infarction was not observed | 
2 | CC(=O)Oc1ccccc1C(=O)O [aspirin] |  |  |  |  | 25
